According to patent US10597388B2, “Pyridazinone herbicides” (FMC CORPORATION, priority 2014, dated 2020):

Experiments:
Assay in all cases: Test E greenhouse herbicide test, pre- and postemergence
Assay type in all cases: in vivo
Conditions in all cases: Preemergence
[1] = test system: foxtail, green (green foxtail, Setaria viridis)
Text: (§1) Seeds of plant species selected from corn (Zea mays), soybean (Glycine max), velvetleaf (Abutilon theophrasti), lambsquarters (Chenopodium album), wild poinsettia (Euphorbia heterophylla), pigweed, palmer (palmer pigweed, Amaranthus palmeri), waterhemp (common waterhemp, Amaranthus rudis), surinam grass (Brachiaria decumbens), crabgrass, large (large crabgrass, Digitaria sanguinalis), crabgrass, Brazilian (Brazilian crabgrass, Digitaria horizontalis), panicum, fall (fall panicum, Panicum dichotomiflorum), foxtail, giant (giant foxtail, Setaria faberii), foxtail, green (green foxtail, Setaria viridis), goosegrass (Eleusine indica), johnsongrass (Sorghum halepense), ragweed (common ragweed, Ambrosia elatior), barnyardgrass (Echinochloa crus-galli), sandbur (southem sandbur, Cenchrus echinatus), arrowleaf sida (Sida rhombifolia), Italian ryegrass (Lolium multiflorum), dayflower (Virginia (VA) dayflower, Commelina virginica), field bindweed (Convolvulus arvensis), momingglory (Ipomoea coccinea), nightshade (eastern black nightshade, Solanum ptycanthum), kochia (Kochia scoparia), nutsedge, yellow (yellow nutsedge, Cyperus esculentus), horseweed (Conyza canadensis), and beggarticks (hairy beggarticks, Bidens pilosa), were planted into a silt loam soil and treated preemergence with test chemicals formulated in a non-phytotoxic solvent mixture which included a surfactant.
(§2) At the same time, plants from these crop and weed species and also waterhemp_RES1, (ALS & Triazine resistant common waterhemp, Amaranthus rudis), and waterhemp_RES2, (ALS & HPPD resistant common waterhemp, Amaranthus rudis) were planted in pots containing Redi-Earth® planting medium (Scotts Company, 14111 Scottslawn Road, Marysville, Ohio 43041) comprising spaghnum peat moss, vermiculite, wetting agent and starter nutrients were treated with postemergence applications of test chemicals formulated in the same manner. Plants ranged in height from 2 to 18 cm for postemergence treatments (1- to 4-leaf stage). Treated plants and controls were maintained in a greenhouse for 14 to 21 d, after which time all species were compared to controls and visually evaluated. Plant response ratings, summarized in Table E, are based on a scale of 0 to 100 where 0 is no effect and 100 is complete control. A dash (-) response means no test result.

[2] = test system: barnyardgrass (Echinochloa crus-galli)
Text: as §1, §2

[3] = test system: dayflower (Virginia (VA) dayflower, Commelina virginica)
Text: as §1, §2

[4] = test system: field bindweed (Convolvulus arvensis)
Text: as §1, §2

[5] = test system: arrowleaf sida (Sida rhombifolia)
Text: as §1, §2

[6] = test system: ragweed (common ragweed, Ambrosia elatior)
Text: as §1, §2

soybean (Glycine max) = test system: soybean (Glycine max)
Text: as §1, §2

[7] = test system: horseweed (Conyza canadensis)
Text: as §1, §2

[8] = test system: crabgrass, Brazilian (Brazilian crabgrass, Digitaria horizontalis)
Text: as §1, §2

[9] = test system: pigweed, palmer (palmer pigweed, Amaranthus palmeri)
Text: as §1, §2

[10] = test system: panicum, fall (fall panicum, Panicum dichotomiflorum)
Text: as §1, §2

corn (Zea mays) = test system: corn (Zea mays)
Text: as §1, §2

[11] = test system: lambsquarters (Chenopodium album)
Text: as §1, §2

[12] = test system: surinam grass (Brachiaria decumbens)
Text: as §1, §2

[13] = test system: goosegrass (Eleusine indica)
Text: as §1, §2

[14] = 62 g ai/ha, scale 0 to 100 (0 no effect, 100 complete control)
[15] = 31 g ai/ha, scale 0 to 100, 0 no effect, 100 complete control
[16] = 125 g ai/ha, visual, scale 0 no effect to 100 complete control
[17] = 250 g ai/ha, visual, scale 0 no effect to 100 complete control
[18] = 125 g ai/ha, scale 0 to 100 (0 no effect, 100 complete control)

In the case of `Cc1ccc2ccccc2c1-c1c(O)c(C)nn(C)c1=O` [Compound 59], the “Plant response rating, Foxtail, Green” value [1, 14] is reported as 90, the “Plant response rating, Foxtail, Green” value [1, 15] is reported as 65 and the “Plant response rating, Foxtail, Green” value [1, 16] is reported as 95. The “Plant response rating, Foxtail, Green” value [1, 17] was 100, the “Plant response rating, Barnyardgrass” value [2, 14] was 25 and the “Plant response rating, Barnyardgrass” value [2, 15] was 0. The “Plant response rating, Barnyardgrass” value [2, 16] was 60, the “Plant response rating, Barnyardgrass” value [2, 17] was 90 and the “Plant response rating, Dayflower, VA” value [3, 14] was 40. The “Plant response rating, Dayflower, VA” value [3, 15] was 10, the “Plant response rating, Dayflower, VA” value [3, 16] was 80 and the “Plant response rating, Dayflower, VA” value [3, 17] was 80. The “Plant response rating, Field Bindweed” value [4, 14] was 75, the “Plant response rating, Field Bindweed” value [4, 15] was 65 and the “Plant response rating, Field Bindweed” value [4, 16] was 95. The “Plant response rating, Field Bindweed” value [4, 17] was 95, the “Plant response rating, Arrowleaf Sida” value [5, 14] was 95 and the “Plant response rating, Arrowleaf Sida” value [5, 15] was 80. The “Plant response rating, Arrowleaf Sida” value [5, 16] was 98, the “Plant response rating, Arrowleaf Sida” value [5, 17] was 98 and the “Plant response rating, Ragweed” value [6, 14] was 95. The “Plant response rating, Ragweed” value [6, 18] was 100, the “Plant response rating, Ragweed” value [6, 15] was 100 and the “Plant response rating, Ragweed” value [6, 17] was 100. For the same compound, the “Plant response rating, Soybean” value (soybean (Glycine max); [14]) was 30, the “Plant response rating, Soybean” value (soybean (Glycine max); [18]) was 30 and the “Plant response rating, Soybean” value (soybean (Glycine max); [15]) was 35. The “Plant response rating, Soybean” value (soybean (Glycine max); [17]) was 70, the “Plant response rating, Horseweed” value [7, 14] was 100 and the “Plant response rating, Horseweed” value [7, 15] was 100. The “Plant response rating, Horseweed” value [7, 16] was 100, the “Plant response rating, Horseweed” value [7, 17] was 100 and the “Plant response rating, Crabgrass, Brazil” value [8, 14] was 90. The “Plant response rating, Crabgrass, Brazil” value [8, 15] was 60, the “Plant response rating, Crabgrass, Brazil” value [8, 16] was 100 and the “Plant response rating, Crabgrass, Brazil” value [8, 17] was 100. The “Plant response rating, Pigweed, Palmer” value [9, 14] was 98, the “Plant response rating, Pigweed, Palmer” value [9, 18] was 100 and the “Plant response rating, Pigweed, Palmer” value [9, 15] was 95. The “Plant response rating, Pigweed, Palmer” value [9, 17] was 100, the “Plant response rating, Panicum, Fall” value [10, 14] was 98 and the “Plant response rating, Panicum, Fall” value [10, 18] was 100. The “Plant response rating, Panicum, Fall” value [10, 15] was 95, the “Plant response rating, Panicum, Fall” value [10, 17] was 100 and the “Plant response rating, Corn” value (corn (Zea mays); [14]) was 0. The “Plant response rating, Corn” value (corn (Zea mays); [15]) was 0, the “Plant response rating, Corn” value (corn (Zea mays); [16]) was 0 and the “Plant response rating, Corn” value (corn (Zea mays); [17]) was 20. For the same compound, the “Plant response rating, Lambsquarters” value [11, 14] was 100, the “Plant response rating, Lambsquarters” value [11, 15] was 100 and the “Plant response rating, Lambsquarters” value [11, 16] was 100. For the same compound, the “Plant response rating, Lambsquarters” value [11, 17] was 100, the “Plant response rating, Surinam Grass” value [12, 14] was 90 and the “Plant response rating, Surinam Grass” value [12, 18] was 100. For the same compound, the “Plant response rating, Surinam Grass” value [12, 15] was 85, the “Plant response rating, Surinam Grass” value [12, 17] was 100 and the “Plant response rating, Goosegrass” value [13, 14] was 95. The “Plant response rating, Goosegrass” value [13, 15] was 90, the “Plant response rating, Goosegrass” value [13, 16] was 98 and the “Plant response rating, Goosegrass” value [13, 17] was 98.
